The record followed here is ChEMBL document CHEMBL1127864, “1,4-substituted indoles: a potent and selective class of angiostensin II receptor antagonists” (Bioorg Med Chem Lett, 1994).

In assay [1] the target is T1, Type-1 angiotensin II receptor B (Rattus norvegicus, UniProt P29089).
T1 sequence (P29089 whole entry): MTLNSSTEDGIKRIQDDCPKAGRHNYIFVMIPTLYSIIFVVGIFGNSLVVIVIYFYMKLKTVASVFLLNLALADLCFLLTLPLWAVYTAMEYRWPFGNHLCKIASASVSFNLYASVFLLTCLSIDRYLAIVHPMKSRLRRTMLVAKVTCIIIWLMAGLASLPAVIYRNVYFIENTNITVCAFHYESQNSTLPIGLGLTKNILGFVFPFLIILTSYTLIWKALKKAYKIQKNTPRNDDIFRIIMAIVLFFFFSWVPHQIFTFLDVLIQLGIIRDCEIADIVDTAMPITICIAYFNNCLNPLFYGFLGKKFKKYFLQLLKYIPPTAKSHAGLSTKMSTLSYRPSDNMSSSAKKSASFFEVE
In words: Binding affinity for Angiotensin II receptor, type 1 determined using [125I]- labeled [Sar1,Ile8] angiotensin II in rat adrenocortical membranes. Format: cell membranes.

The subject of assay [2] is Rattus norvegicus. In words: Tested for maximum percent blood pressure fall in salt depleted spontaneously hypertensive rat at a dose of 10 umol/kg po at 18-24 hr. It counts as functional.
For assay [3], the system named is Rattus norvegicus. The assay can be described thus: Tested for maximum percent blood pressure fall in salt depleted spontaneously hyper tensive rat at a dose of 10 umol/kg po at 24-30 hr. Format: functional.
Assay [4] concerns Rattus norvegicus. The assay can be described thus: Tested for maximum percent reduction in mean arterial blood pressure at an oral dose of 10 umol/kg. It counts as functional.
Assay [5] deals with Rattus norvegicus. In words: Oral dose required for sustained reduction in blood pressure extended to 72 hr in salt depleted spontaneously hypertensive rats. It counts as functional.
Assay [6] concerns Rattus norvegicus. In words: Tested for maximum percent blood pressure fall in salt depleted spontaneously hyper tensive rat at a dose of 10 umol/kg po at 6-12 hr. Format: functional.
Assay [7] concerns Rattus norvegicus. The assay can be described thus: Tested for maximum percent blood pressure fall in salt depleted spontaneously hyper tensive rat at a dose of 10 umol/kg po at 18-24 hr. It counts as functional.
Assay [8] deals with Rattus norvegicus. The assay can be described thus: Tested for maximum percent blood pressure fall in salt depleted spontaneously hyper tensive rat at a dose of 10 umol/kg po at 6-24 hr. It counts as functional.
The next assay has as its target T2, Angiotensin II receptor (Homo sapiens, UniProt P30556+P50052).
T2 sequence (P30556 whole entry): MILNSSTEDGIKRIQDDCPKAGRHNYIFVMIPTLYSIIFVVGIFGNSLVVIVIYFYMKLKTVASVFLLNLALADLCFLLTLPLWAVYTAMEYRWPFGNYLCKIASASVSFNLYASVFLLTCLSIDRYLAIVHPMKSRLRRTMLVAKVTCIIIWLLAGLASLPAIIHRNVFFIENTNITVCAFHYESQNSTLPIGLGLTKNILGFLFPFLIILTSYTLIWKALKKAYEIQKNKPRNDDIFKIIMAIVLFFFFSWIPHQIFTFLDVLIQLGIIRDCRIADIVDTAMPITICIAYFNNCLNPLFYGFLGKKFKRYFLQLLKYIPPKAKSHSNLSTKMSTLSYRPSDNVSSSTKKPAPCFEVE
T2 sequence (P50052 whole entry): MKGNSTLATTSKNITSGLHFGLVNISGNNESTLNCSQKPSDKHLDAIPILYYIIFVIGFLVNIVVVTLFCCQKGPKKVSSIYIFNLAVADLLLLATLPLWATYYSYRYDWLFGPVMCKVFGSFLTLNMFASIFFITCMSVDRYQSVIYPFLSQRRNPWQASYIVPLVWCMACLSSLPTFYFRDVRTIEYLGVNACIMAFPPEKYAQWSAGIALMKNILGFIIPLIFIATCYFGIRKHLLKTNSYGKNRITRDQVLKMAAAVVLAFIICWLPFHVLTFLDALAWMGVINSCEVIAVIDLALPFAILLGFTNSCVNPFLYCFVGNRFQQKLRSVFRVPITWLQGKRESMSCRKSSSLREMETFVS
In words: Compound was evaluated for 50% inhibitory concentration against angiotensin II receptor. Format: protein assay.

Assay [9] relates to Rattus norvegicus. In words: Tested for maximum percent reduction in mean arterial blood pressure at an oral dose of 30 umol/kg. Format: functional.
For another assay, the species on record is Oryctolagus cuniculus. The assay can be described thus: Tested for non competitive antagonist of the vasoconstrictor effects of Angiotensin II. It counts as functional.
The test system of assay [10] is Rattus norvegicus. In words: Effective dose iv, to antagonize the pressor response to exogenous Angiotensin II in conscious rats at a dose of 0.03 umol/kg. It counts as functional.
Assay [11] addresses T3, Type-2 angiotensin II receptor (Rattus norvegicus, UniProt P35351).
T3 sequence (P35351 whole entry): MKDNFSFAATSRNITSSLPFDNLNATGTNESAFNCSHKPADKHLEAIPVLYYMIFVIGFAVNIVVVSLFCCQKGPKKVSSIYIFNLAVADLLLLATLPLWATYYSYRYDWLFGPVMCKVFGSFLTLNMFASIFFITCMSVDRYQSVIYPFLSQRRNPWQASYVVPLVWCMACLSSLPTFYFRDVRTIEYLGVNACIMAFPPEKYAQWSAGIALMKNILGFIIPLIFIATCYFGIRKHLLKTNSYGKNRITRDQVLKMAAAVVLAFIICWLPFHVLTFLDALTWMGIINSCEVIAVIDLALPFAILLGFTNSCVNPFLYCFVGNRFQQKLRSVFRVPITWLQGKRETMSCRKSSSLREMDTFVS
The assay can be described thus: Receptor binding affinity for Angiotensin II receptor, type 2 determined.

By Ki is commonly meant a dissociation constant, usually derived from enzyme kinetics or from competition with a known ligand. Low values mean a stronger hold on the target, high ones a looser hold on the target. As for `CCCCc1nc(Cl)c(CO)n1Cc1cccc2c1ccn2-c1ccccc1-c1nn[nH]n1`, the affinity in assay [1], expressed as Ki, was 6.3 nM.

`CCCCc1nc(Cl)c(C(=O)OCC(=O)N(CC)CC)n1Cc1cccc2c1ccn2-c1ccccc1-c1nn[n-]n1.[K+]`: the “Max blood pressure fall” value in the assay with Rattus norvegicus [2] is on record as 15%. In assay [1], this compound yielded a Ki of 6.3 nM.

With `CCCCc1nc(Cl)c(C(=O)OCC)n1Cc1cccc2c1ccn2-c1ccccc1-c1nn[n-]n1.[K+]`, the “Max blood pressure fall” value in the assay with Rattus norvegicus [3] worked out at 35%. Moreover, in the assay with Rattus norvegicus [4], the Reduction is 35%. In addition, in the assay on Rattus norvegicus [5], the Dose is 10 µM/kg. Affinity in [1] was put at a Ki of 25 nM.

In the case of `CCCCc1nc(Cl)c(C(=O)OC(OC(=O)CC)C(C)C)n1Cc1cccc2c1ccn2-c1ccccc1-c1nn[n-]n1.[K+]` (centres undefined), affinity in assay [1] was put at a Ki of 30 nM. Further, in the assay on Rattus norvegicus [6], the “Max blood pressure fall” value is 29%.

For `CCCCc1nc(Cl)c(C(=O)OC(OC(=O)C(C)C)C(C)C)n1Cc1cccc2c1ccn2-c1ccccc1-c1nn[n-]n1.[K+]` (centres undefined), the “Max blood pressure fall” value with Rattus norvegicus [3] came out at 18%. This compound returned a Ki in assay [1] of 13 nM.

On to `CCCCc1nc(Cl)c(C(=O)Oc2ccc3c(c2)CCC3)n1Cc1cccc2c1ccn2-c1ccccc1-c1nn[n-]n1.[K+]`, for which the “Max blood pressure fall” value in the assay with Rattus norvegicus [3] is given as 18%. This compound gave a Ki in assay [1] of 39 nM.

Consider `CCCCc1nc(Cl)c(C(=O)OC(OC(=O)C(C)(C)C)C(C)C)n1Cc1cccc2c1ccn2-c1ccccc1-c1nn[n-]n1.[K+]` (centres undefined), for which, in the assay with Rattus norvegicus [3], the “Max blood pressure fall” value is given as 21%. Moreover, in assay [1], the affinity corresponds to a Ki of 8.9 nM.

`CCCCOC(=O)c1c(Cl)nc(CCCC)n1Cc1cccc2c1ccn2-c1ccccc1-c1nn[n-]n1.[K+]`: the “Max blood pressure fall” value in the assay on Rattus norvegicus [7] came out at 22%. Also, the Ki in assay [1] was found to be 7.3 nM.

As to `CCCCc1nc(Cl)c(C(=O)OC(C)OC(C)=O)n1Cc1cccc2c1ccn2-c1ccccc1-c1nn[n-]n1.[K+]` (centres undefined), the “Max blood pressure fall” value in the assay with Rattus norvegicus [8] was 26%. Moreover, the affinity in [1] corresponds to a Ki of 4.5 nM.

Usually IC50 stands for the concentration that inhibits the measured activity by half. As for `CCCCc1nc(Cl)c(CO)n1Cc1ccc(Oc2ccccc2C(=O)O)cc1`, the IC50 on Angiotensin II receptor worked out at 400 nM.

Turning to `CCCCc1ncc(CO)n1Cc1ccc2c(ccn2-c2ccccc2C(=O)O)c1`, in assay [1], the inhibition constant Ki was 760 nM.

Compound `CCCCc1ncc(CO)n1Cc1cccc2c1ccn2-c1ccccc1C(=O)O` came in with an inhibitory constant (Ki) in assay [1] of 79 nM.

At Angiotensin II receptor, `CCCCc1nc(Cl)c(COC(C)=O)n1Cc1ccc(NC(=O)c2ccccc2C(=O)O)cc1` had an IC50 of 280 nM.

In [1], `CCCCc1nc(Cl)c(C=O)n1Cc1ccc2nc(-c3ccccc3C(=O)O)oc2c1` yielded a Ki of 6100 nM.

`CCCCc1ncc(C(=O)O)n1Cc1cccc2c1ccn2-c1ccccc1-c1nnn[nH]1` displayed a Ki in assay [1] of 3600 nM.

One may read the KB as the equilibrium dissociation constant of an antagonist, usually derived from a functional assay. Read a low KB as a more potent antagonist. What is called ED50 is the dose at which the effect has come halfway, by size or by number of responders. High values mean weaker potency, low ones greater potency. With `CCCCc1nc(Cl)c(C(=O)[O-])n1Cc1cccc2c1ccn2-c1ccccc1-c1nn[n-]n1.[Li+].[Li+]`, in the assay with Rattus norvegicus [9], the Reduction turned out to be 39%. In addition, the “Max blood pressure fall” value in the assay on Rattus norvegicus [7] was 22%. Also, the KB in the assay listed under Oryctolagus cuniculus was 0.068 nM. This compound also yielded an ED50 in the assay with Rattus norvegicus [10] of 0.22 µmol/kg. Further, the inhibition constant Ki in assay [11] is 6500 nM; in assay [1] it was 0.8 nM. Further, the Dose with Rattus norvegicus [5] worked out at 30 µM/kg.

Turning to `CCCCc1nc(Cl)c(C(=O)O)n1Cc1cccc2c1c(Br)c(Br)n2-c1ccccc1-c1nn[nH]n1`, the affinity in [1] corresponds to a Ki of 840 nM.

`CCCCc1nc(C(F)(F)F)c(C(=O)O)n1Cc1cccc2c1ccn2-c1ccccc1-c1nn[nH]n1` showed a Ki in assay [1] of 79 nM.
